Reference: PubChem BioAssay (NCI)
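Dose response: 5 concentrations. Exposure: 48 h. Format: 96-well plates. Endpoint: linear interpolation; highest concentration if not reached. At the GI50, growth is halved. TGI is the concentration that stops growth completely.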

How the values were obtained:
Test in all cases: NCI tumour cell line growth inhibition, 48 h
[1] = test system: SF-268 CNS
[2] = test system: LOX IMVI melanoma
[3] = test system: M14 melanoma
[4] = test system: NCI-H522 lung
[5] = test system: OVCAR-4 ovarian
[6] = test system: HCT-15 colon
[7] = test system: SR leukemia
[8] = test system: OVCAR-3 ovarian
[9] = test system: MDA-MB-435
[10] = test system: COLO 205 colon
[11] = test system: HOP-62 NSCLC
[12] = test system: NCI-H460 lung
[13] = test system: BT-549 breast
[14] = test system: RPMI-8226 leukemia
[15] = test system: MOLT-4 leukemia
[16] = test system: KM12 colon
[17] = test system: SK-MEL-5 melanoma
[18] = test system: MALME-3M melanoma
[19] = test system: HS 578T breast
[20] = test system: K-562 leukemia
[21] = test system: DU-145 prostate
[22] = test system: HCT-116 colon
[23] = test system: UACC-257 melanoma
[24] = test system: NCI-H226 lung
[25] = test system: TK-10 renal
[26] = test system: CAKI-1 renal
[27] = test system: T-47D breast
[28] = test system: 786-0 renal
[29] = test system: IGROV1 ovarian
[30] = test system: HL-60(TB) leukemia
[31] = test system: CCRF-CEM leukemia
[32] = test system: SF-539 CNS
[33] = test system: PC-3 prostate
[34] = test system: A498 renal
[35] = test system: SN12C renal
[36] = test system: RXF 393 renal
[37] = test system: UACC-62 melanoma
[38] = test system: NCI-H23 lung
[39] = test system: SNB-75 CNS
[40] = test system: A549 NSCLC
[41] = test system: UO-31 renal
[42] = test system: SK-MEL-2 melanoma
[43] = test system: SK-MEL-28 melanoma
[44] = test system: SF-295 CNS
[45] = test system: SW-620 colon
[46] = test system: OVCAR-8 ovarian
[47] = test system: U251 CNS
[48] = test system: MDA-MB-231 breast
[49] = test system: SK-OV-3 ovarian
[50] = test system: MCF7 breast
[51] = test system: OVCAR-5 ovarian
[52] = test system: HT29 colon
[53] = test system: HOP-92 NSCLC
[54] = test system: HCC-2998 colon
[55] = test system: ACHN renal
[56] = test system: EKVX NSCLC
[57] = test system: SNB-19 CNS
[58] = test system: NCI/ADR-RES ovarian

CN1CCN(c2ccc3nc(-c4[nH]ncc4Nc4ncnc5c4OCCCN5)[nH]c3c2)CC1 showed a GI50 [1] of under 11.2 nM, a TGI [1] of 49 nM and a GI50 [2] of under 10 nM. It also gave a TGI [2] of 20.2 nM, a GI50 [3] of under 11.5 nM and a TGI [3] of 70.6 nM. For the same molecule, the GI50 [4] was under 11.7 nM, the TGI [4] was 48.8 nM and the GI50 [5] was 16.2 nM. It also gave a TGI [5] of 104 nM, a GI50 [6] of 25.9 nM and a TGI [6] of 630 nM. The GI50 [7] was under 10 nM, the GI50 [8] was under 10 nM and the TGI [8] was 42.2 nM. The GI50 [9] was under 10 nM, the TGI [9] was 81 nM and the GI50 [10] was under 10 nM. It also gave a TGI [10] of 15.7 nM, a GI50 [11] of 10.1 nM and a TGI [11] of 62 nM. It also gave a GI50 [12] of 20.8 nM, a TGI [12] of 80.4 nM and a GI50 [13] of 10.8 nM. For the same molecule, the TGI [13] was 38.4 nM, the GI50 [14] was 41.8 nM and the TGI [14] was 155 nM. It also gave a GI50 [15] of under 10 nM, a TGI [15] of 315 nM and a GI50 [16] of under 10.5 nM. The TGI [16] was 109 nM, the GI50 [17] was 20.4 nM and the TGI [17] was 97.6 nM. The GI50 [18] was 18.5 nM, the TGI [18] was 63.3 nM and the GI50 [19] was under 10 nM. It also gave a TGI [19] of 30.2 nM, a GI50 [20] of under 10 nM and a TGI [20] of 29800 nM. The GI50 [21] was under 11.8 nM, the TGI [21] was 482 nM and the GI50 [22] was under 10 nM. For the same molecule, the TGI [22] was 1090 nM, the GI50 [23] was 25.2 nM and the TGI [23] was 213 nM. For the same molecule, the GI50 [24] was under 10 nM, the TGI [24] was 57.3 nM and the GI50 [25] was 16.6 nM. For the same molecule, the TGI [25] was 57.6 nM, the GI50 [26] was under 10 nM and the TGI [26] was 80.5 nM. The GI50 [27] was 12.9 nM, the TGI [27] was 155 nM and the GI50 [28] was under 11.9 nM. It also gave a TGI [28] of 94.4 nM, a GI50 [29] of under 10 nM and a TGI [29] of 70.7 nM. It also gave a GI50 [30] of under 10 nM, a TGI [30] of 29.8 nM and a GI50 [31] of under 10 nM. The TGI [31] was 1360 nM, the GI50 [32] was under 10 nM and the TGI [32] was 21.4 nM. The GI50 [33] was under 10 nM, the TGI [33] was 67.1 nM and the GI50 [34] was under 13 nM. It also gave a TGI [34] of 34.1 nM, a GI50 [35] of under 10 nM and a TGI [35] of 120 nM. For the same molecule, the GI50 [36] was under 10 nM, the GI50 [37] was 10.3 nM and the TGI [37] was 52.9 nM. For the same molecule, the GI50 [38] was under 10.9 nM, the TGI [38] was 72.6 nM and the GI50 [39] was under 10 nM. It also gave a TGI [39] of 17.7 nM, a GI50 [40] of under 10 nM and a TGI [40] of 116 nM. The GI50 [41] was 17.9 nM, the TGI [41] was 57.8 nM and the GI50 [42] was 12.4 nM. It also gave a TGI [42] of 46.8 nM, a GI50 [43] of 16.1 nM and a TGI [43] of 104 nM. For the same molecule, the GI50 [44] was 16.2 nM, the TGI [44] was 76.9 nM and the GI50 [45] was under 10 nM. It also gave a TGI [45] of 112 nM, a GI50 [46] of 17.6 nM and a TGI [46] of 593 nM. It also gave a GI50 [47] of under 10 nM, a TGI [47] of 123 nM and a GI50 [48] of under 10 nM. The TGI [48] was 42.3 nM, the GI50 [49] was under 10.8 nM and the TGI [49] was 202 nM. It also gave a GI50 [50] of under 10 nM, a TGI [50] of 145 nM and a GI50 [51] of 12.1 nM. The TGI [51] was 163 nM, the GI50 [52] was under 12.6 nM and the TGI [52] was 100 nM. For the same molecule, the GI50 [53] was under 10.7 nM, the TGI [53] was 42.9 nM and the GI50 [54] was 15.9 nM. The TGI [54] was 76.2 nM, the GI50 [55] was 13.9 nM and the TGI [55] was 105 nM. The GI50 [56] was 16.8 nM, the TGI [56] was 183 nM and the GI50 [57] was 10.6 nM. It also gave a TGI [57] of 172 nM, a GI50 [58] of 280 nM and a TGI [58] of 2890 nM.
